These results are taken from patent US20250059205A1, “Heterocyclic Compounds and Methods of Use” (AMGEN INC., priority 2021, published 2025).

SMILES strings stand for the structures. Read-outs that look alike come from different tables or passages of the source.

Test [1] deals with GDP-bound KRAS protein (aa 1-169), containing both G12D and C118A amino acid substitutions (Homo sapiens, UniProt P01116, C118A/G12D). The test is described as follows: KRAS G12D Coupled Nucleotide Exchange Assay. The format is biochemical. To be noted: 2 h compound pre-incubation. As for the experimental part: Following compound pre-incubation, purified SOS protein (aa 564-1049) and GTP (Roche 10106399001) were added to the assay wells and incubated for an additional 30 min. […] The assay plates were then read on a PerkinElmer EnVision Multilabel Reader, using AlphaScreen® technology, and data were analyzed using a 4-parameter logistic model to calculate IC50 values.

Test [2] deals with Phosphorylation of ERK1/2 in A-427 cells. The test is described as follows: Phospho-ERK1/2 MSD Assay (A-427 cells). The note with it: 2 h treatment, read-out: p-ERK (A427 cells) IC50. The format is cell-based. In a few lines: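 ERK1/2 phosphorylation measured by Meso Scale whole-cell lysate assay after A-427 cells were exposed to a titration of compound for 2 h at 37 °C.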
In test [3] the test system is Phosphorylation of ERK1/2 in AsPC-1 cells. Kind of test: Phospho-ERK1/2 MSD Assay (AsPC-1 cells). The format is cell-based. To be noted: 2 hours treatment, read-out: p-ERK (AsPC-1 cells) IC50. In a few lines:
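Read-out: MSD electrochemiluminescent detection of phosphorylated ERK1/2 in whole-cell lysates, fitted to a 4-parameter logistic curve for IC50. Prior to lysis, AsPC-1 cells (25,000 per well) received a 2 h compound dose-response at 37 °C.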

Test [4] addresses His-tagged KRAS G12D protein (Homo sapiens, UniProt P01116, G12D). The test is described as follows: KRAS G12D TR-FRET Assay. In kind it is binding. (Time-resolved FRET reads energy transfer from a long-lived donor to a nearby acceptor.)

Sequence of GDP-bound KRAS protein (aa 1-169), containing both G12D and C118A amino acid substitutions (P01116 1-169 isoform P01116-2 G12D/C118A): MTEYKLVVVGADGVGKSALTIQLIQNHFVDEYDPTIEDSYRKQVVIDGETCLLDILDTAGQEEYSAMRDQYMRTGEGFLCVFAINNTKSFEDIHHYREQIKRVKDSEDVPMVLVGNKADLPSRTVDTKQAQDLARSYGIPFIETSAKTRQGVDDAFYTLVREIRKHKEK
Sequence of His-tagged KRAS G12D protein (P01116 1-188 isoform P01116-2 G12D): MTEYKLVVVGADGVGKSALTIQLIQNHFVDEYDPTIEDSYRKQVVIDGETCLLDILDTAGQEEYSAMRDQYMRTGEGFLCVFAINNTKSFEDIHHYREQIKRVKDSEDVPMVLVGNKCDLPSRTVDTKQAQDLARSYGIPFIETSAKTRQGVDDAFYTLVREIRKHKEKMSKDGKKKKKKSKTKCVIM

In the case of `O=c1cc(-c2ccc3c(N4C[C@H]5CC[C@@H](C4)N5)nc(OC[C@@]45CCCN4C[C@H](F)C5)nc3c2F)c2ccccc2[nH]1` [Example 222, 4-(4-((1R,5S)-3,8-diazabicyclo[3.2.1]octan-3-yl)-8-fluoro-2-(((2R,7aS)-2-fluorotetrahydro-1H-pyrrolizin-7a(5H)-yl)methoxy)quinazolin-7-yl)quinolin-2-ol], the “Avg 2 h Coupled Exchange IC50” value in test [1] stood at 0.074 µM. Further, the half-inhibitory concentration (IC50) – broadly, the midpoint of a concentration-inhibition curve – is over 10 µM in test [2] (Homo sapiens, A-427, 2 h); over 10 µM in test [3] (Homo sapiens, ASPC1, 2 h); 0.255 µM in test [4].
As to `Nc1ccc(C(F)(F)F)c(-c2ccc3c(N4C[C@H]5CC[C@@H](C4)N5)nc(OC[C@@]45CCCN4C[C@H](F)C5)nc3c2F)n1` [Example 223, 6-(4-((1R,5S)-3,8-diazabicyclo[3.2.1]octan-3-yl)-8-fluoro-2-(((2R,7aS)-2-fluorotetrahydro-1H-pyrrolizin-7a(5H)-yl)methoxy)quinazolin-7-yl)-5-(trifluoromethyl) pyridin-2-amine], the “Avg 2 h Coupled Exchange IC50” value in test [1] was 0.015 µM. The IC50 in test [2] (Homo sapiens, A-427, 2 h) was 0.894 µM; in test [3] (Homo sapiens, ASPC1, 2 h), 3.03 µM; in test [4], 0.044 µM.
Regarding `Nc1ccc(C2CC2)c(-c2ccc3c(N4C[C@H]5CC[C@@H](C4)N5)nc(OC[C@@]45CCCN4C[C@H](F)C5)nc3c2F)n1` [Example 224, 6-(4-((1R,5S)-3,8-diazabicyclo[3.2.1]octan-3-yl)-8-fluoro-2-(((2R,7aS)-2-fluorotetrahydro-1H-pyrrolizin-7a(5H)-yl)methoxy)quinazolin-7-yl)-5-cyclopropylpyridin-2-amine], the “Avg 2 h Coupled Exchange IC50” value in test [1] stood at 0.041 µM. Moreover, the half-inhibitory concentration (IC50) in test [2] (Homo sapiens, A-427, 2 h) is 7.62 µM; in test [3] (Homo sapiens, ASPC1, 2 h), over 10 µM; in test [4] it was 0.274 µM.
For the compound `Fc1c(-c2cc(C(F)F)cc3ccccc23)ccc2c(N3C[C@H]4CC[C@@H](C3)N4)nc(OC[C@@]34CCCN3C[C@H](F)C4)nc12` [Example 225, 4-((1R,5S)-3,8-diazabicyclo[3.2.1]octan-3-yl)-7-(3-(difluoromethyl)naphthalen-1-yl)-8-fluoro-2-(((2R,7aS)-2-fluorotetrahydro-1H-pyrrolizin-7a(5H)-yl)methoxy) quinazoline], the “Avg 2 h Coupled Exchange IC50” value in test [1] amounted to 0.044 µM. Besides, the IC50 in test [2] (Homo sapiens, A-427, 2 h) amounted to 0.079 µM; in test [3] (Homo sapiens, ASPC1, 2 h), 0.256 µM; in test [4], 0.057 µM.
In the same order, the values of `Cc1ccc2[nH]nc(N)c2c1-c1ccc2c(N3C[C@H]4CC[C@@H](C3)N4)nc(OC[C@@]34CCCN3C[C@H](F)C4)nc2c1F` [Example 226, 4-(4-((1R,5S)-3,8-diazabicyclo[3.2.1]octan-3-yl)-8-fluoro-2-(((2R,7aS)-2-fluorotetrahydro-1H-pyrrolizin-7a(5H)-yl)methoxy)quinazolin-7-yl)-5-methyl-1H-indazol-3-amine] are 0.007 µM, over 10 µM, over 10 µM and 0.044 µM.
With `N#Cc1cc(O)cc(-c2c(F)cc3c(N4C[C@H]5CC[C@@H](C4)N5)nc(OC[C@@]45CCCN4C[C@H](F)C5)nc3c2F)c1C1CC1` [Example 227, 3-(4-((1R,5S)-3,8-Diazabicyclo[3.2.1]octan-3-yl)-6,8-difluoro-2-(((2R,7aS)-2-fluorotetrahydro-1H-pyrrolizin-7a(5H)-yl)methoxy)quinazolin-7-yl)-2-cyclopropyl-5-hydroxybenzonitrile], the “Avg 2 h Coupled Exchange IC50” value in test [1] amounted to 0.004 µM. The concentration for half-maximal inhibition (IC50) in test [2] (Homo sapiens, A-427, 2 h) turned out to be 0.048 µM; in test [3] (Homo sapiens, ASPC1, 2 h), 0.308 µM; in test [4], 0.003 µM.
In the case of `Nc1cc(Cl)c(C(F)(F)F)c(-c2ccc3c(N4C[C@H]5CC[C@@H](C4)N5)nc(OC[C@@]45CCCN4C[C@H](F)C5)nc3c2F)n1` [Example 228, 6-(4-((1R,5S)-3,8-Diazabicyclo[3.2.1]octan-3-yl)-8-fluoro-2-(((2R,7aS)-2-fluorotetrahydro-1H-pyrrolizin-7a(5H)-yl)methoxy)quinazolin-7-yl)-4-chloro-5-(trifluoromethyl)pyridin-2-amine], the “Avg 2 h Coupled Exchange IC50” value in test [1] is 0.002 µM. Further, the IC50 in test [2] (Homo sapiens, A-427, 2 h) was 0.077 µM; in test [3] (Homo sapiens, ASPC1, 2 h), 0.302 µM; in test [4] it was 0.002 µM.
In the case of `Cc1cc(N)nc(-c2ccc3c(N4C[C@H]5CC[C@@H](C4)N5)nc(OC[C@@]45CCCN4C[C@H](F)C5)nc3c2F)c1C(F)(F)F` [Example 229, 6-(4-((1R,5S)-3,8-Diazabicyclo[3.2.1]octan-3-yl)-8-fluoro-2-(((2R,7aS)-2-fluorotetrahydro-1H-pyrrolizin-7a(5H)-yl)methoxy)quinazolin-7-yl)-4-methyl-5-(trifluoromethyl)pyridin-2-amine], in test [1], the “Avg 2 h Coupled Exchange IC50” value is 0.004 µM. Also, the IC50 turned out to be 0.222 µM in test [2] (Homo sapiens, A-427, 2 h); 0.486 µM in test [3] (Homo sapiens, ASPC1, 2 h); 0.007 µM in test [4].
In the case of `CCc1c(F)ccc2cc(O)cc(-c3cc(C)c4c(N5C[C@H]6CC[C@@H](C5)N6)nc(OC[C@@]56CCCN5C[C@H](F)C6)nc4c3F)c12` [Example 230], the concentration for half-maximal inhibition (IC50) in test [1] (read-out: Avg 2 h Coupled Exchange IC50) turned out to be 0.001 µM; in test [2] it was 0.033 µM; in test [3], 0.068 µM; in test [4], 0.004 µM.
`CCc1c(F)ccc2cc(O)cc(-c3cc(F)c4c(N5C[C@H]6CC[C@@H](C5)N6)nc(OC[C@@]56CCCN5C[C@H](F)C6)nc4c3F)c12` [Example 231, 4-(4-((1R,5S)-3,8-diazabicyclo[3.2.1]octan-3-yl)-5,8-difluoro-2-(((2R,7aS)-2-fluorotetrahydro-1H-pyrrolizin-7a(5H)-yl)methoxy)quinazolin-7-yl)-5-ethyl-6-fluoronaphthalen-2-ol]: the “Avg 2 h Coupled Exchange IC50” value in test [1] stood at 0.005 µM. Further, the IC50 in test [2] (Homo sapiens, A-427, 2 h) was 0.015 µM; in test [3] (Homo sapiens, ASPC1, 2 h), 0.068 µM; in test [4], 0.004 µM.
